We go through eleven molecules from US20260373119A1, “NOVEL COMPOUND, AND COMPOSITION FOR PREVENTING OR TREATING HER2-POSITIVE CANCER, COMPRISING SAME” (EWHA UNIVERSITY - INDUSTRY COLLABORATION FOUNDATION, priority 2022, published 2026).

Broadly, the inhibition is the relative decrease from the control value, in per cent. The low end stands for a weak effect, the high end for a strong effect. One may read the IC50 as the point on the concentration scale where inhibition reaches its midpoint. Low values mean greater potency, high ones weaker potency.

Experiment [1] addresses T1, ELF3-MED23 protein-protein interaction (Homo sapiens, UniProt Q9ULK4).
T1 construct: followed by the addition of either the candidate compound or MED23 protein constructs; endogenous in cells; host or cells: 293T kidney cells (MED23 endogenous; GAL4-ELF3 transfected)
T1 sequence (Q9ULK4 1-1368): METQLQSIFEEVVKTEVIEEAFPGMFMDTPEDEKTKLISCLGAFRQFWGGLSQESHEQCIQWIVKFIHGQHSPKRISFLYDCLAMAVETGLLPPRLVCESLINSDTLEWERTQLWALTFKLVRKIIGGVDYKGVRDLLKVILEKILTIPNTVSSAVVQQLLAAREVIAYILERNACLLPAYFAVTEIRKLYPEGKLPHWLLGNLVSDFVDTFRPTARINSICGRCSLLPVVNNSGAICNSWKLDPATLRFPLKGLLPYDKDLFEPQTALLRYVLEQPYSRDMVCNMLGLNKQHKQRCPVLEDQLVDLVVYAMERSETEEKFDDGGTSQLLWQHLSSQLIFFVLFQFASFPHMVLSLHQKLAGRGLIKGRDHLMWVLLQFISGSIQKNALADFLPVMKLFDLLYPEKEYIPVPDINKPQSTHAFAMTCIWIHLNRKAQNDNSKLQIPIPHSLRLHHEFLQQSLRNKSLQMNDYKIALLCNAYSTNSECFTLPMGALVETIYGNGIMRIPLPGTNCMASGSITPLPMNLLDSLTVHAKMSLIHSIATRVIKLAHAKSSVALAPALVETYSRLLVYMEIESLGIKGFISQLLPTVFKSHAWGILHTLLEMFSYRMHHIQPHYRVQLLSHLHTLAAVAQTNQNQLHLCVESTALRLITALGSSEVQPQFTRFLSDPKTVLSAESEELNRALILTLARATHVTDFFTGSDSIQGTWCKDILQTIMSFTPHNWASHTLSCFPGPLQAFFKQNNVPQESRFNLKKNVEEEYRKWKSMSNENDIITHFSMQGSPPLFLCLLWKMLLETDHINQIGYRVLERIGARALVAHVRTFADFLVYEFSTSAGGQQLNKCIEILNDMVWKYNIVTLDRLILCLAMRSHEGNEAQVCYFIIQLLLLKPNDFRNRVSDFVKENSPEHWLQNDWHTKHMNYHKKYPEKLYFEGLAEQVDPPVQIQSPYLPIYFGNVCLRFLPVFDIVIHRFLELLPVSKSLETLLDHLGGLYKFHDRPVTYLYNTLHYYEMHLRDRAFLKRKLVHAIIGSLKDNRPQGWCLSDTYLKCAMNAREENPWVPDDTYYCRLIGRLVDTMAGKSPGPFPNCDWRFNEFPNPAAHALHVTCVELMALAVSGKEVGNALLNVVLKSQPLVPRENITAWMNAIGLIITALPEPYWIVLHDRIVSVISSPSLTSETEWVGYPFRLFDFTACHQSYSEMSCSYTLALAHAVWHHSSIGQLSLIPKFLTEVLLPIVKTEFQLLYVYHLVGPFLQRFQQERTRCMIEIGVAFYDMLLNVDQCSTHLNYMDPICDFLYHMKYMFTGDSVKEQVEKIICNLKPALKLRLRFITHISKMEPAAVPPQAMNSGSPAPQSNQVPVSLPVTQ
In words: SEAP reporter assay, ELF3-MED23 PPI inhibition (293T kidney cells). In kind it is cell-based. Conditions: HEK-293T; 10 μM. Here is the method: To verify whether the D400 and H449 residues play a critical role in the ELF3-MED23 protein-protein interaction, a SEAP assay was performed. Specifically, 293T kidney cells were seeded at a density of 5×10^3 cells/well in a 96-well microplate (SPL, Korea) and cultured overnight. Subsequently, the cells were co-transfected with 100 ng of each plasmid using transfection-optimized medium (Welgene, Korea). The plasmids used included the SEAP reporter gene (pG5IL2SX) and GAL4-ELF3 expression vector (pBJ GAL4-ELF3). For transfection, the cells were incubated with WelFectQ (Welgene, Korea) for 3 hours, followed by the addition of either the candidate compound or MED23 protein constructs (pcDNA MED23^WT, K397A, D400A, H449G, and D400A/H449G). The treated cells were incubated for 12 hours. The candidate compound was added in an incubator at 5% CO2 and 37 °C, and the plate was incubated at 65 °C for 3 hours to inactivate all enzymes except SEAP (Secreted Alkaline Phosphatase). A mixture comprising 100 μL of substrate solution prepared with 1.19 μL of 0.1 M 4-methylumbelliferyl phosphate (Sigma, USA), 25 μL of inactivated medium, and 75 μL of double-distilled water was added, followed by the addition of 98.81 μL of 2 M diethanolamine (pH 10, Sigma, USA). The plate was incubated overnight at 37 °C. Subsequently, the fluorescence intensity was measured using a fluorometer (SPECTRAmax […], Molecular Devices, USA) at an excitation wavelength of 360 nm and an emission wavelength of 440 nm.
To further elaborate on the above findings, small molecule compounds that could affect the ELF3-MED23 PPI were designed and synthesized. Specifically, non-essential side chains were removed from gefitnib, and compounds were designed to include both hydrogen bond donors and acceptors for the D400 and H449 residues of MED23, respectively (FIG. 4A). Specifically, chalcones and pyrazolines were selected as core scaffolds, and 25 compounds (11 chalcones and 14 pyrazoline-based compounds) were prepared. The ELF3-MED23 PPI inhibitory activity of all prepared compounds was measured using a SEAP assay.

For experiment [2], the system named is HCT15 (HER2-positive colorectal cancer cell line). In words: antiproliferative effect, HCT15. Type of experiment: cell-based. Conditions: Homo sapiens, HCT-15, 72 hours. Here is the method: (§1) The antiproliferative effects were measured after treating Compounds 1 to 22 for 72 hours on HCT15 (HER2-positive colorectal cancer cell line), NCI-N87 (HER2-positive gastric cancer cell line), T47D (HER2-negative breast cancer cell line), and HeLa (HER2-negative cervical cancer cell line). As a result, strong antiproliferative effects were generally observed in the NCI-N87 cell line (Table 2).
(§2) The antiproliferative effects of the candidate compound, resulting from HER2 inhibition, were evaluated. Specifically, to confirm the anticancer effects of the candidate compound, cancer cells were seeded at a density of 10^4 cells/well in a 96-well cell culture plate for 20 hours. The cells were starved in serum-free media for 4 hours, followed by replacement with media containing the compound at specified concentrations. The cells were then incubated for 72 hours under conditions of 5% CO2 at 37 °C. Cell viability was determined by adding 5 μL of EZ-CytoX to each well and measuring absorbance at 450 nm. The measurements were performed using an ELISA Microplate Reader (VersaMax, Molecular Devices).

Experiment [3] has as its system NCI-N87 (HER2-positive gastric cancer cell line). In words: antiproliferative effect, NCI-N87. In kind it is cell-based. Particulars: Homo sapiens, NCI-N87; 72 hours; HER2-positive. Here is the method:
as §1, §2

Experiment [4] has as its system T47D (HER2-negative breast cancer cell line). In words: antiproliferative effect, T47D. In kind it is cell-based. Particulars: Homo sapiens, 72 hours. Here is the method:
as §1, §2

For experiment [5], the system named is HeLa (HER2-negative cervical cancer cell line). In words: antiproliferative effect, HeLa. Conditions: Homo sapiens, 72 hours. Type of experiment: cell-based. On the procedure: as §1, §2
In experiment [6] the target is T1, ELF3-MED23 protein-protein interaction. Particulars: cited from earlier work.

`COc1ccc(C2CC(c3cccc(O)c3)=NN2C(C)=O)c2ccccc12` (centres unmarked) [Compound 14, 1-[3-(3-Hydroxyphenyl)-5-(4-methoxynaphthalen-1-yl)-4,5-dihydropyrazol-1-yl]-ethanone] yielded an inhibition at 10 µM in experiment [1] of 14%. Moreover, the IC50 in experiment [2] was found to be 19.5 ± 0.41 µM; in experiment [3] it was 42.4 ± 0.86 µM; in experiment [4] it was 5.57 ± 0.26 µM; in experiment [5] it was 0.69 µM.
Taken in the same sequence, the figures for `CC(=O)N1N=C(c2cccc(O)c2)CC1c1ccc(O)cc1` (centres unmarked) [Compound 16, 1-[5-(4-Hydroxyphenyl)-3-(3-hydroxyphenyl)-4,5-dihydropyrazol-1-yl]-ethanone] were 37%, above 50 µM, above 50 µM, above 50 µM and above 50 µM.
Taken in the same sequence, the figures for `CC(=O)N1N=C(c2ccccc2O)CC1c1ccco1` (centres unmarked) [Compound 17, 1-[5-Furan-2-yl-3-(2-hydroxyphenyl)-4,5-dihydropyrazol-1-yl]-ethanone] were 23%, above 50 µM, above 50 µM, above 50 µM and above 50 µM.
Taken in the same sequence, the figures for `CC(=O)N1N=C(c2ccccc2O)CC1c1ccc(O)cc1` (centres unmarked) [Compound 19, 1-[5-(4-Hydroxyphenyl)-3-(2-hydroxyphenyl)-4,5-dihydropyrazol-1-yl]-ethanone] were 39%, above 50 µM, above 50 µM, above 50 µM and above 50 µM.
As to `CC(=O)N1N=C(c2ccccc2O)CC1c1ccc(Cl)cc1` (centres unmarked) [Compound 20, 1-[5-(4-Chlorophenyl)-3-(2-hydroxyphenyl)-4,5-dihydropyrazol-1-yl]-ethanone], testing at 10 µM in experiment [1] gave an inhibition of 45%. Besides, the IC50 in experiment [2], in experiment [3], in experiment [4] and in experiment [5] was above 50 µM in each case.
Take `CC(=O)N1N=C(c2ccccc2O)CC1c1cccs1` (centres unmarked) [Compound 21, 1-[3-(2-Hydroxyphenyl)-5-thiophen-2-yl-4,5-dihydropyrazol-1-yl]-ethanone]: the inhibition at 10 µM in experiment [1] worked out at 57%. Besides, the IC50 in experiment [2], in experiment [3], in experiment [4] and in experiment [5] was above 50 µM in each case.
`COc1ccc(C2CC(c3ccccc3O)=NN2C(C)=O)cc1` (centres unmarked) [Compound 22, 1-[3-(2-Hydroxyphenyl)-5-(4-methoxyphenyl)-4,5-dihydropyrazol-1-yl]-ethanone] displayed an inhibition at 10 µM in experiment [1] of 63%. Further, the IC50 in experiment [2] was 40.3 ± 0.51 µM; in experiment [3], above 50 µM; in experiment [4], above 50 µM; in experiment [5] it was above 50 µM.
As for `COc1cc2ncnc(Nc3ccc(F)c(Cl)c3)c2cc1OCCCN1CCOCC1` [Gefitinib, gefitinib, reference compound], in experiment [1], at 10 µM the inhibition was 85%. In experiment [6], the “known ELF3-MED23 PPI inhibition” value is on record as “inhibit ELF3-MED23 protein-protein interaction (PPI)”.
For the molecule `CC(C)N(CC(O)COc1cccc2[nH]ccc12)C(=O)N1CCC(C2CCN(C(=O)C34CC5CC(CC(C5)C3)C4)CC2)CC1` (centres unmarked) [adamanolol], the “known ELF3-MED23 PPI inhibition” value in experiment [6] is “inhibit ELF3-MED23 protein-protein interaction (PPI)”.
For `C=CC(=O)Nc1cc2c(Nc3ccc(F)c(Cl)c3)ncnc2cc1OCCCN1CCOCC1` [canertinib], the “PPI inhibitory activity relative to gefitinib” value in experiment [6] (ELF3-MED23 PPI) is “superior PPI inhibitory activity compared to gefitinib”. Moreover, the “known ELF3-MED23 PPI inhibition” value in experiment [6] is recorded as “inhibit ELF3-MED23 protein-protein interaction (PPI)”.
As for `Cc1ccc(S(=O)(=O)n2ccc3c(OCC(O)CN(CCCCCN)C(=O)N4CCC(C5CCN(C(=O)C67CC8CC(CC(C8)C6)C7)CC5)CC4)cccc32)cc1` (centres unmarked) [wrenchnolol], in experiment [6], the “known ELF3-MED23 PPI inhibition” value is “inhibit ELF3-MED23 protein-protein interaction (PPI)”.
